From PubChem BioAssay (NCI)
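Growth conditions: 96-well plates. Treatment: test compound, 48 hours, 5 concentrations. Analysis: linear interpolation between bracketing concentrations; unreached endpoints set to highest concentration. TGI denotes the concentration required for complete inhibition of growth.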

Experiments:
Assay in all cases: DTP human tumour cell line panel, 48 h
[1] = system: OVCAR-3 ovarian
[2] = system: MCF7 breast
[3] = system: ACHN renal
[4] = system: A549 NSCLC
[5] = system: DU-145 prostate
[6] = system: BT-549 breast
[7] = system: NCI-H460 lung
[8] = system: NCI-H226 lung
[9] = system: IGROV1 ovarian
[10] = system: SF-539 CNS

| SMILES | TGI [1] [µM] | TGI [2] [µM] | TGI [3] [µM] | TGI [4] [µM] | TGI [5] [µM] | TGI [6] [µM] | TGI [7] [µM] | TGI [8] [µM] | TGI [9] [µM] | TGI [10] [µM] |
| --- | --- | --- | --- | --- | --- | --- | --- | --- | --- | --- |
| O=c1c2[nH]cnc2n(-c2ccccc2)c(=S)n1-c1ccccc1 | > 100 | > 100 | > 100 | > 100 | > 100 | > 100 | > 100 | > 100 | > 100 | > 100 |
| C=CCOC(C)(C)C1=CCC(C)CC1 (configuration not stated) | > 100 | > 100 | > 100 | > 100 | > 100 | > 100 | > 100 | – | > 100 | > 100 |
| [C-]#[O+].[Cl][Sn]([Cl])[Cl].[Cl][Sn]([Cl])[Cl].[Pt].c1cnc2c(c1)ccc1cccnc12 | > 69.8 | 56.4 | – | > 100 | – | – | 23.5 | > 42.4 | 35.7 | 16.6 |
| Cc1ccc(S(=O)(=O)OCCN(CCOS(=O)(=O)c2ccc(C)cc2)c2ccc(C=O)cc2)cc1 | 56 | 92.9 | > 100 | > 100 | 69.9 | > 100 | 48.6 | – | > 100 | > 100 |
| O=C(/C=C\c1ccccc1)Oc1ccc(/C=C2\CCC/C(=C\c3ccc(OC(=O)/C=C\c4ccccc4)cc3)C2=O)cc1 | > 100 | > 100 | > 100 | > 100 | > 100 | > 100 | > 100 | – | – | > 100 |
| COc1cc(C2c3cc4c(cc3[C@@H](Nc3ccc(F)cc3)C3COC[C@H]23)OCO4)cc(OC)c1O (some centres not stated) | – | > 25 | 6.21 | 10.6 | – | – | 3.83 | – | > 25 | 3.49 |
| Cc1cccc2c1nc1n2C(=O)c2ccccc2-1 | > 100 | > 100 | > 100 | > 100 | > 100 | > 100 | > 100 | > 100 | > 100 | > 100 |
| CC(C)Oc1cccc(N2C(CCc3c[nH]c4ccc(Br)cc34)=NS(=O)(=O)c3cnccc32)c1 | > 100 | > 100 | > 100 | > 100 | > 100 | > 100 | > 100 | 97.8 | – | > 100 |
| COC(=O)c1c(O)ccc2c1c1c(n2Cc2ccc(OC)cc2)C(=O)c2ccccc2C1 | > 100 | > 100 | – | > 100 | > 100 | > 100 | > 100 | > 100 | > 100 | > 100 |
| O=C(N/N=C/c1ccccc1)c1c(F)c(F)c(F)c(F)c1F | > 100 | – | > 100 | > 100 | > 100 | > 100 | > 100 | > 100 | > 100 | > 100 |
| O=C(O)CCCc1ccc2c(c1)C(C(=O)O)CC2 (configuration not stated) | – | > 100 | > 100 | > 100 | > 100 | > 100 | > 100 | > 100 | > 100 | > 100 |
| CN(C)c1cccc2c(S(=O)(=O)NCCN)cccc12 | > 100 | – | > 100 | > 100 | > 100 | – | > 100 | > 100 | 91.9 | > 100 |
| CCOC(=O)C(Cc1ccc(N=NN(C)C)cc1)NC(=O)CC1c2ccccc2-c2ccccc21 (configuration not stated) | > 100 | – | > 100 | > 100 | – | – | > 100 | > 100 | > 100 | > 100 |
| COc1ccc(C(=CCC(C)C2CCC3[C@@H]4C(OC(C)=O)CC5CC(OC(C)=O)CC[C@]5(C)C4CC(OC(C)=O)[C@]23C)c2ccc(OC)cc2)cc1 (some centres not stated) | – | > 100 | > 100 | > 100 | – | – | > 100 | – | > 100 | > 100 |
| Cc1ccc(S(=O)(=O)NC(=O)Nc2ccc(C(=O)O)cc2)cc1 | – | > 100 | > 100 | > 100 | > 100 | > 100 | > 100 | – | > 100 | > 100 |
| CC(=O)c1c(-c2ccc(Cl)cc2)c(C#N)c(=S)n(C2OC(CO)C(O)C(O)C2O)c1C (configuration not stated) | > 100 | – | > 100 | > 100 | > 100 | – | > 100 | > 100 | > 100 | > 100 |
| CC(=O)O[C@H]1CC[C@@H](OC(C)=O)[C@H]2[C@H](O)[C@H](O)[C@@H]1n1c(=O)n(-c3ccccc3)c(=O)n12 | > 100 | > 100 | > 100 | > 100 | > 100 | > 100 | – | > 100 | > 100 | > 100 |
| O=[N+]([O-])/C=C/c1cc(Cl)c(/C=C/[N+](=O)[O-])cc1Cl | 5.04 | > 33.2 | 2.97 | 36.1 | 7.96 | 3.25 | 52.9 | 5.4 | 8.62 | – |
| O=C(O)C1CCC(=O)N1C(=O)COc1cc(Cl)c(Cl)cc1Cl (configuration not stated) | > 100 | – | > 100 | > 100 | – | – | > 100 | > 100 | > 100 | – |
| CC(C)CNP(=O)(NCC(C)C)Oc1ccc(CC(NC(=O)OCc2ccccc2)C(=O)OCc2ccccc2)cc1 (configuration not stated) | 16 | 24.7 | 30.6 | > 100 | 24.3 | 52.4 | 33.4 | > 100 | > 100 | – |
| Cc1cc2nc(N3C(=O)/C(=C/Cc4ccco4)N=C3c3ccccc3)sc2cc1C | > 100 | 40.4 | 96.3 | > 100 | > 100 | > 100 | > 100 | – | > 100 | > 100 |
| Cc1cc(-c2ccc(N=Nc3ccc4c(S(=O)(=O)O)cc(S(=O)(=O)O)c(N)c4c3O)c(C)c2)ccc1N=Nc1ccc2c(S(=O)(=O)O)cc(S(=O)(=O)O)c(N)c2c1O | > 100 | > 100 | – | > 100 | – | – | > 100 | > 100 | > 100 | > 100 |
| NC1CCC2(O)c3ccccc3C2C1 (configuration not stated) | – | – | > 100 | > 100 | – | – | > 100 | > 100 | – | – |
| CN1C(c2ccccc2)CC(O)CC1c1ccccc1 (configuration not stated) | > 100 | – | > 100 | > 100 | – | – | > 100 | > 100 | > 100 | > 100 |
